According to patent US10336739B2, “4-hydroxy-3-(heteroaryl)pyridine-2-one APJ agonists” (BRISTOL-MYERS SQUIBB COMPANY, priority 2015, dated 2019):

Each compound was assayed against human APJ receptor (Homo sapiens (Human), UniProt P35414) (assay: Intracellular cAMP accumulation assay (APJ hcAMP, HTRF)). Settings: HEK293 cells stably expressing human APJ receptor; inhibition of forskolin-mediated cAMP production; read-out: Human APJ cAMP EC50 Potency range.
Format: cell-based
Method in brief: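 cAMP inhibition was quantified by HTRF against a cAMP standard curve, with EC50 fitted to a variable-slope sigmoidal curve. Compounds acted on 5,000 APJ-stable HEK293 cells for 30 minutes at room temperature alongside 2 μM forskolin and […] IBMX. Detection reagents were incubated 60 min.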

human APJ receptor, sequence (P35414 whole entry): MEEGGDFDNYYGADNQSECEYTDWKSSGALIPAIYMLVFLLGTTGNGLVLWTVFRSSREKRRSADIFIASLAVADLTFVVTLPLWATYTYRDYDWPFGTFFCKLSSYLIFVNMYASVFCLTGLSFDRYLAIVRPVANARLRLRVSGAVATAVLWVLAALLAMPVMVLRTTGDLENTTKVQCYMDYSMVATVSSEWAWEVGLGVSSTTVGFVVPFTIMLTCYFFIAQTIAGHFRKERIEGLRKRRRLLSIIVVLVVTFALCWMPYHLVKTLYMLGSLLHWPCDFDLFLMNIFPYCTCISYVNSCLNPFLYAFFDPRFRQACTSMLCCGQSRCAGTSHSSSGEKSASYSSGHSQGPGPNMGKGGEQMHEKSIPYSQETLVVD

| EC50 [nM] | SMILES |
| --- | --- |
| 10 to 100 | CCCCc1nc(O)c(-c2nnc(CNC)o2)c(O)c1-c1c(OC)cccc1OC [Example 154, 6-butyl-5-(2,6-dimethoxyphenyl)-3-{5-[(methylamino)methyl]-1,3,4-oxadiazol-2-yl}pyridine-2,4-diol] |
| 0.01 to 10 | CCCCc1nc(O)c(-c2nnc(CN(C)C(=O)Cc3ccccc3)o2)c(O)c1-c1c(OC)cccc1OC [Example 155, N-({5-[6-butyl-5-(2,6-dimethoxyphenyl)-2,4-dihydroxypyridin-3-yl]-1,3,4-oxadiazol-2-yl}methyl)-N-methyl-2-phenylacetamide] |

Same assay, conditions: HEK293 cells stably expressing human APJ receptor; inhibition of forskolin-mediated cAMP production; read-out: hAPJ cAMP EC50 Potency range

| EC50 [nM] | SMILES |
| --- | --- |
| 10 to 100 | CCCCc1[nH]c(=O)c(-c2nnc(Cc3csc(C)n3)o2)c(O)c1-c1cccc(N2CCCC2)c1 [Example 153, 6-butyl-4-hydroxy-3-{5-[(2-methyl-1,3-thiazol-4-yl)methyl]-1,3,4-oxadiazol-2-yl}-5-[3-(pyrrolidin-1-yl)phenyl]-1,2-dihydropyridin-2-one] |
| 0.01 to 10 | CCCCc1nc(O)c(-c2nnc(CN(C)C(=O)c3cccc(Cl)c3)o2)c(O)c1-c1c(OC)cccc1OC [Example 156, N-({5-[6-butyl-5-(2,6-dimethoxyphenyl)-2,4-dihydroxypyridin-3-yl]-1,3,4-oxadiazol-2-yl}methyl)-3-chloro-N-methylbenzamide] |
| 0.01 to 10 | CCCCc1nc(O)c(-c2nnc(CN(C)C(=O)c3ccccn3)o2)c(O)c1-c1c(OC)cccc1OC [Example 157, N-({5-[6-butyl-5-(2,6-dimethoxyphenyl)-2,4-dihydroxypyridin-3-yl]-1,3,4-oxadiazol-2-yl}methyl)-N-methylpyridine-2-carboxamide] |
| 0.01 to 10 | CCCCc1nc(O)c(-c2nnc(CNC(=O)COC)o2)c(O)c1-c1c(OC)cccc1OC [Example 158, N-({5-[6-butyl-5-(2,6-dimethoxyphenyl)-2,4-dihydroxypyridin-3-yl]-1,3,4-oxadiazol-2-yl}methyl)-2-methoxyacetamide] |
| 0.01 to 10 | CCCCc1nc(O)c(-c2nnc(CN(C)C(=O)c3ccncc3)o2)c(O)c1-c1c(OC)cccc1OC [Example 159, N-({5-[6-butyl-5-(2,6-dimethoxyphenyl)-2,4-dihydroxypyridin-3-yl]-1,3,4-oxadiazol-2-yl}methyl)-N-methylpyridine-4-carboxamide] |
| 0.01 to 10 | CCCCc1nc(O)c(-c2nnc(CNC(=O)c3cccnc3)o2)c(O)c1-c1c(OC)cccc1OC [Example 160, N-({5-[6-butyl-5-(2,6-dimethoxyphenyl)-2,4-dihydroxypyridin-3-yl]-1,3,4-oxadiazol-2-yl}methyl)pyridine-3-carboxamide] |
| 0.01 to 10 | CCCCc1nc(O)c(-c2nnc(CN(C)C(=O)c3ccccc3Cl)o2)c(O)c1-c1c(OC)cccc1OC [Example 161, N-({5-[6-butyl-5-(2,6-dimethoxyphenyl)-2,4-dihydroxypyridin-3-yl]-1,3,4-oxadiazol-2-yl}methyl)-2-chloro-N-methylbenzamide] |
| 0.01 to 10 | CCCCc1nc(O)c(-c2nnc(CNC(=O)c3cccc(Cl)c3)o2)c(O)c1-c1c(OC)cccc1OC [Example 162, N-({5-[6-butyl-5-(2,6-dimethoxyphenyl)-2,4-dihydroxypyridin-3-yl]-1,3,4-oxadiazol-2-yl}methyl)-3-chlorobenzamide] |
| 0.01 to 10 | CCCCc1nc(O)c(-c2nnc(CNC(=O)c3ccc(Cl)cc3)o2)c(O)c1-c1c(OC)cccc1OC [Example 163, N-({5-[6-butyl-5-(2,6-dimethoxyphenyl)-2,4-dihydroxypyridin-3-yl]-1,3,4-oxadiazol-2-yl}methyl)-4-chlorobenzamide] |
| 0.01 to 10 | CCCCc1nc(O)c(-c2nnc(CNC(=O)c3ccncc3)o2)c(O)c1-c1c(OC)cccc1OC [Example 164, N-({5-[6-butyl-5-(2,6-dimethoxyphenyl)-2,4-dihydroxypyridin-3-yl]-1,3,4-oxadiazol-2-yl}methyl)pyridine-4-carboxamide] |
